The source of these data is a melting point compilation (Tetko et al.; mined from patent text by program, amines drawn as free bases though some values may be those of a salt).

Some results are limits rather than exact numbers.

`Cc1ccc(S(=O)(=O)n2ccc3c(C=O)cccc32)cc1` registered a melting point of 144 to 146 °C.

With `CC(=O)NCC1CN(c2ccc(N3CCC(=CC#N)C(C)C3)c(F)c2)C(=O)O1` (configuration not stated), the melting point fell in the range of 152 to 153 °C.

For the molecule `COc1ccc(/C=C/C=C/C(=O)O)cc1`, the melting point lay within 134 to 135 °C.

For the molecule `CC(c1ccc(-c2ccc(OCc3nc4ccccc4s3)cc2)c(F)c1)N(O)C(N)=O` (configuration not stated), the melting point was in the range of 185 to 186 °C.

As to `c1ccc(CN2CCN(c3n[nH]c4c3Cc3ccccc3-4)CC2)cc1`, the melting point lay in the range of 256 to 258 °C.

The molecule `CCOC(=O)Cc1ccc(-c2nc(COc3ccc(COc4nn(-c5ccccc5)cc4/C=C/c4coc(CC)n4)cc3OC)c(C)o2)cc1` displayed a melting point of 155 to 157 °C.

The molecule `Cc1c(F)c(Oc2cc(C(F)(F)F)nn2C)nc(Oc2cc(C(F)(F)F)nn2C)c1F` displayed a melting point of 101 °C.

Regarding `CC(C)OCC1(C(F)(F)F)c2cc(Cl)ccc2Nc2ncc(Cl)cc21` (configuration not stated), the melting point lay in the range of 137 to 138 °C.

`CN1CCC(c2c[nH]c3ccc(NC(=O)c4ccoc4)nc23)CC1` returned a melting point of 105 to 108 °C.

Take `O=CN(O)C(CS(=O)(=O)c1ccc(Oc2ccc(OC(F)(F)F)cc2)cc1)C1CCC2(CC1)OCCO2` (configuration not stated): the melting point lay in the range of 176 to 177 °C.

For `CS(=O)(=O)c1ccc(-c2cnn(CC(F)(F)F)c(=O)c2Nc2cc(F)cc(F)c2F)cc1`, the melting point was in the range of 190 to 194 °C.

In turn, `CCOC(=O)C1=Cc2cc(Cl)cc(C#N)c2OC1C(F)(F)F` (configuration not stated) showed a melting point of 115 to 116 °C.

On to `Cn1ncc(C(=O)O)c1C(=O)Nc1ccn2nc(-c3cccc(F)n3)nc2c1`, for which the melting point was more than 290 °C.

Take `O=c1ccn(-c2cccc(C(F)(F)F)c2)nc1-c1nnnn1-c1ccccc1`: the melting point lay in the range of 172 to 173 °C.

In the case of `Cc1cc(C#N)cc(C(=O)Nc2ccc(F)cc2)n1`, the melting point came out at 189 °C.

As for `CC(=O)SCC(CC(C)C)C(=O)Nc1cccc(C(=O)O)c1C` (configuration not stated), the melting point is 154 to 156 °C.

`C=C(C)C=NNC1=NS(=O)(=O)c2ccccc21`: the melting point is 224 °C.

`Cc1ccc2ccc(N3C(=O)c4ccccc4C3OC(=O)CCCC(C)C)nc2n1` (configuration not stated) displayed a melting point of 144 °C.

As to `COc1cc(N2CCC(N3CCNCC3)CC2)ccc1Nc1ncc2ccc(-c3ccccc3OC)n2n1`, the melting point was 65 to 67 °C.

With `C=C1C(=O)c2ccccc2OC1(c1ccccc1)c1ccccc1`, the melting point lay within 165 to 167 °C.

In turn, `COc1cc2c(cc1OC)C(C(S)(C#N)C(C)C(=O)O)=NCC2` (configuration not stated) displayed a melting point of 155 to 158 °C.

Take `O=C1NC(=O)c2c1c1c3ccc(F)cc3[nH]c1c1c2c2ccc(F)cc2n1C1OC2COC(C2O)C1O` (configuration not stated): the melting point was more than 300 °C.

With `O=C(O)c1cc(C(=O)O)c2c(Cl)cc(Cl)cc2n1`, the melting point amounted to 246 °C.

Turning to `COc1cc(C2=NNC(=O)Cc3cc4c(cc32)OCO4)ccc1[N+](=O)[O-]`, the melting point lay in the range of 267 to 269 °C.

`CN1CCn2c1c(-c1ccccc1)c1ncccc1c2=O` gave a melting point of 237 to 240 °C.

Molecule `CC(Oc1ncn(-c2ccc(Br)cc2)n1)C(N)=O` (configuration not stated) displayed a melting point of 179 to 181 °C.

On to `Cc1cccc(-c2[nH]c(C(C)(C)C)nc2-c2cccc(-c3ccc(C(=O)NC4CCOCC4)cc3)c2)n1`, for which the melting point fell in the range of 146 to 149 °C.

In the case of `CC(C)Cn1c(CNC(=O)OC(C)(C)C)c(-c2ccc(F)cc2)c2cc(OCc3ccccc3)ccc2c1=O`, the melting point lay in the range of 184 to 185 °C.

As to `Cc1ccc2cccc(OCc3c(Cl)ccc(S(=O)(=O)N(CCCCN(C(=O)OC(C)(C)C)C(=O)OC(C)(C)C)C(C)(C)C)c3Cl)c2n1`, the melting point lay within 172 to 175 °C.

Molecule `CN(Cc1ccc(NC(=O)C2=Cc3cc(-c4cc5ccccc5s4)ccc3S(=O)(=O)CC2)cc1)C1CCOCC1` gave a melting point of 270 to 271 °C.

For `NC(=O)N1c2ccccc2C(Cl)=C(Cl)c2ccccc21`, the melting point was in the range of 265 to 270 °C.

With `CCOP(=O)(Cc1ccc(NC(=O)/C=C/c2cnn(C)c2-c2ccc(F)cc2)cc1)OCC`, the melting point was 208 to 209 °C.

Broadly, the melting point is the temperature, or range, at which the solid turns liquid.
